From patent US7704992B2, “Hepatitis C virus inhibitors” (Bristol-Myers Squibb Company, priority 2008, dated 2010) come the findings set out here.

The test system of one assay is HCV 1b-377-neo replicon cells. Briefly: HCV Replicon assay, HCV 1b genotype. Conditions: Hepatitis C virus, class symbol, read-out: EC50 range against HCV 1b. It is filed as cell-based. Here is the method:
An HCV Replicon assay was utilized in the present disclosure, and was prepared, conducted and validated as described in commonly owned PCT/US2006/022197 and in O'Boyle et. al. Antimicrob Agents Chemother. 2005 April; 49(4): 1346-53.
HCV 1b-377-neo replicon cells were used to test the currently described compound series as well as cells resistant to compound A containing a Y2065H mutation in NS5A (described in application PCT/US2006/022197). The compounds tested were determined to have more than 10-fold less inhibitory activity on cells containing the mutation than wild-type cells indicating a related mechanism of action between the two compound series. Thus, the compounds of the present disclosure can be effective to inhibit the function of the HCV NS5A protein and are understood to be as effective in combinations as previously described in application PCT/US2006/022197 and commonly owned WO/04014852. Further, the compounds of the present disclosure can be effective against the HCV 1b genotype. It should also be understood that the compounds of the present disclosure can inhibit multiple genotypes of HCV. […] In one embodiment compounds of the present disclosure are active against the 1a, 1b, 2a, 2b, 3a, 4a, and 5a genotypes.
Background: Replicon systems follow genome replication, usually without infectious particles.
As to `COC(=O)N[C@H](C(=O)N1CCC[C@H]1c1ncc(-c2ccc3c(c2)C2(CCC2)c2cc(-c4cnc([C@@H]5CCCN5C(=O)[C@@H](NC(=O)OC)C(C)C)[nH]4)ccc2-3)[nH]1)C(C)C` [Example 16, methyl ((1S)-1-(((2S)-2-(5-(7′-(2-((2S)-1-((2S)-2-((methoxycarbonyl)amino)-3-methylbutanoyl)-2-pyrrolidinyl)-1H-imidazol-5-yl)spiro[cyclobutane-1,9′-fluoren]-2′-yl)-1H-imidazol-2-yl)-1-pyrrolidinyl)carbonyl)-2-methylpropyl)carbamate], the EC50 lay in the range of 0.001 to 0.1 nM.
Regarding `COC(=O)N[C@@H](C)C(=O)N1CCC[C@H]1c1ncc(-c2ccc3c(c2)C2(CCC2)c2cc(-c4cnc([C@@H]5CCCN5C(=O)[C@H](C)NC(=O)OC)[nH]4)ccc2-3)[nH]1` [Example 17], the EC50 lay in the range of 0.001 to 0.1 nM.
Turning to `COC(=O)N[C@H](C(=O)N1CCC[C@H]1c1ncc(-c2ccc3c(c2)oc2cc(-c4cnc([C@@H]5CCCN5C(=O)[C@@H](NC(=O)OC)C(C)C)[nH]4)ccc23)[nH]1)C(C)C` [Example 18, methyl ((1S)-1-(((2S)-2-(4-(7-(2-((2S)-1-((2S)-2-((methoxycarbonyl)amino)-3-methylbutanoyl)-2-pyrrolidinyl)-1H-imidazol-4-yl)dibenzo[b,d]furan-3-yl)-1H-imidazol-2-yl)-1-pyrrolidinyl)carbonyl)-2-methylpropyl)carbamate], the EC50 lay within 0.001 to 0.1 nM.
Same read-out and setting: then `COC(=O)N[C@H](C(=O)N1CCC[C@H]1c1ncc(-c2ccc3c(c2)oc2cc(-c4cnc([C@@H]5CCCN5C(=O)[C@@H](NC(=O)OC)C5CC5)[nH]4)ccc23)[nH]1)C1CC1` [Example 19, dimethyl (dibenzo[b,d]furan-3,7-diylbis(1H-imidazole-4,2-diyl(2S)-2,1-pyrrolidinediyl((1S)-1-cyclopropyl-2-oxo-2,1-ethanediyl)))biscarbamate], with 0.001 to 0.1 nM; and `COC(=O)N[C@H](C(=O)N1CCC[C@H]1c1ncc(-c2ccc3c(c2)oc2cc(-c4cnc([C@@H]5CCCN5C(=O)[C@@H](NC(=O)OC)C(C)(C)C)[nH]4)ccc23)[nH]1)C(C)(C)C` [Example 20, methyl ((1S)-1-(((2S)-2-(4-(7-(2-((2S)-1-((2S)-2-((methoxycarbonyl)amino)-3,3-dimethylbutanoyl)-2-pyrrolidinyl)-1H-imidazol-4-yl)dibenzo[b,d]furan-3-yl)-1H-imidazol-2-yl)-1-pyrrolidinyl)carbonyl)-2,2-dimethylpropyl)carbamate], with 0.001 to 0.1 nM; and `COC(=O)N[C@H](C(=O)N1CCC[C@H]1c1ncc(-c2ccc3c(c2)oc2cc(-c4cnc([C@@H]5CCCN5C(=O)[C@@H](NC(=O)OC)C(C)(C)O)[nH]4)ccc23)[nH]1)C(C)(C)O` [Example 21, methyl ((1S)-2-hydroxy-1-(((2S)-2-(4-(7-(2-((2S)-1-((2S)-3-hydroxy-2-((methoxycarbonyl)amino)-3-methylbutanoyl)-2-pyrrolidinyl)-1H-imidazol-4-yl)dibenzo[b,d]furan-3-yl)-1H-imidazol-2-yl)-1-pyrrolidinyl)carbonyl)-2-methylpropyl)carbamate], with 0.001 to 0.1 nM.
Still for that read-out and setting: the value for `COC(=O)N[C@@H](C)C(=O)N1CCC[C@H]1c1ncc(-c2ccc3c4ccc(-c5cnc([C@@H]6CCCN6C(=O)[C@H](C)NC(=O)OC)[nH]5)cc4n(C)c3c2)[nH]1` [Example 22, methyl ((1S)-2-((2S)-2-(5-(7-(2-((2S)-1-(N-(methoxycarbonyl)-L-alanyl)-2-pyrrolidinyl)-1H-imidazol-5-yl)-9-methyl-9H-carbazol-2-yl)-1H-imidazol-2-yl)-1-pyrrolidinyl)-1-methyl-2-oxoethyl)carbamate] was 1 to 99 nM; that for `COC(=O)N[C@H](C(=O)N1CCC[C@H]1c1ncc(-c2ccc3c4ccc(-c5cnc([C@@H]6CCCN6C(=O)[C@@H](NC(=O)OC)C(C)C)[nH]5)cc4n(C)c3c2)[nH]1)C(C)C` [Example 25, methyl ((1S)-1-(((2S)-2-(5-(7-(2-((2S)-1-((2S)-2-((methoxycarbonyl)amino)-3-methylbutanoyl)-2-pyrrolidinyl)-1H-imidazol-5-yl)-9-methyl-9H-carbazol-2-yl)-1H-imidazol-2-yl)-1-pyrrolidinyl)carbonyl)-2-methylpropyl)carbamate] was 0.001 to 0.1 nM; that for `COC(=O)N[C@@H](C)C(=O)N1CCC[C@H]1c1ncc(-c2ccc3c4ccc(-c5cnc([C@@H]6CCCN6C(=O)[C@H](C)NC(=O)OC)[nH]5)cc4n(S(=O)(=O)c4ccccc4)c3c2)[nH]1` [Example 26, methyl ((1S)-2-((2S)-2-(5-(7-(2-((2S)-1-(N-(methoxycarbonyl)-L-alanyl)-2-pyrrolidinyl)-1H-imidazol-5-yl)-9-(phenylsulfonyl)-9H-carbazol-2-yl)-1H-imidazol-2-yl)-1-pyrrolidinyl)-1-methyl-2-oxoethyl)carbamate] was 0.001 to 0.1 nM.
`COC(=O)N[C@H](C(=O)N1CCC[C@H]1c1ncc(-c2ccc3c4ccc(-c5cnc([C@@H]6CCCN6C(=O)[C@@H](NC(=O)OC)C(C)C)[nH]5)cc4n(S(=O)(=O)c4ccccc4)c3c2)[nH]1)C(C)C` [Example 27, methyl ((1S)-1-(((2S)-2-(5-(7-(2-((2S)-1-((2S)-2-((methoxycarbonyl)amino)-3-methylbutanoyl)-2-pyrrolidinyl)-1H-imidazol-5-yl)-9-(phenylsulfonyl)-9H-carbazol-2-yl)-1H-imidazol-2-yl)-1-pyrrolidinyl)carbonyl)-2-methylpropyl)carbamate]: the EC50 fell in the range of 0.001 to 0.1 nM.
The same measure, in the same setting: the value for `COCC[C@H](NC(=O)OC)C(=O)N1CCC[C@H]1c1ncc(-c2ccc3c4ccc(-c5cnc([C@@H]6CCCN6C(=O)[C@H](CCOC)NC(=O)OC)[nH]5)cc4n(S(=O)(=O)c4ccccc4)c3c2)[nH]1` [Example 28, methyl ((1S)-3-methoxy-1-(((2S)-2-(5-(7-(2-((2S)-1-(N-(methoxycarbonyl)-O-methyl-L-homoseryl)-2-pyrrolidinyl)-1H-imidazol-5-yl)-9-(phenylsulfonyl)-9H-carbazol-2-yl)-1H-imidazol-2-yl)-1-pyrrolidinyl)carbonyl)propyl)carbamate] was 0.001 to 0.1 nM.

The assay is the same for the next values; noted with them: class symbol, read-out: EC50 range against HCV 1b.
In the case of `COC(=O)N[C@H](C(=O)N1CCC[C@H]1c1ncc(-c2ccc3c4ccc(-c5cnc([C@@H]6CCCN6C(=O)[C@@H](NC(=O)OC)[C@@H](C)OC)[nH]5)cc4n(C)c3c2)[nH]1)[C@@H](C)OC` [Example 23, methyl ((1S,2R)-2-methoxy-1-(((2S)-2-(5-(7-(2-((2S)-1-(N-(methoxycarbonyl)-O-methyl-L-threonyl)-2-pyrrolidinyl)-1H-imidazol-5-yl)-9-methyl-9H-carbazol-2-yl)-1H-imidazol-2-yl)-1-pyrrolidinyl)carbonyl)propyl) carbamate], the EC50 was in the range of 0.001 to 0.1 nM.
Same read-out and setting: the value for `COCC[C@H](NC(=O)OC)C(=O)N1CCC[C@H]1c1ncc(-c2ccc3c4ccc(-c5cnc([C@@H]6CCCN6C(=O)[C@H](CCOC)NC(=O)OC)[nH]5)cc4n(C)c3c2)[nH]1` [Example 24, methyl ((1S)-3-methoxy-1-(((2S)-2-(5-(7-(2-((2S)-1-(N-(methoxycarbonyl)-O-methyl-L-homoseryl)-2-pyrrolidinyl)-1H-imidazol-5-yl)-9-methyl-9H-carbazol-2-yl)-1H-imidazol-2-yl)-1-pyrrolidinyl)carbonyl)propyl) carbamate] was 0.101 to 0.999 nM.

A word on the EC50: it is the concentration at which the effect is half-maximal.
